For 29 compounds, IC50 results are on record in patent publication US9447038B2 (SANOFI, priority 2012, dated 2016).

Counter-ions that a name gives are not always drawn.

The target of this test is human CXCR3-A receptor (Homo sapiens (Human), UniProt P49682). Briefly: 125I-CXCL10 competition radioligand binding assay.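 Also: One-hour incubation of membranes with tracer, bound radioligand separated by glass fibre filtration, IC50 derived from four-parameter nonlinear fit of competition curves.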 The note with it: displacement of 125I-CXCL10 from membranes of CHO cells expressing human recombinant CXCR3-A.
Sequence of human CXCR3-A receptor (P49682 whole entry): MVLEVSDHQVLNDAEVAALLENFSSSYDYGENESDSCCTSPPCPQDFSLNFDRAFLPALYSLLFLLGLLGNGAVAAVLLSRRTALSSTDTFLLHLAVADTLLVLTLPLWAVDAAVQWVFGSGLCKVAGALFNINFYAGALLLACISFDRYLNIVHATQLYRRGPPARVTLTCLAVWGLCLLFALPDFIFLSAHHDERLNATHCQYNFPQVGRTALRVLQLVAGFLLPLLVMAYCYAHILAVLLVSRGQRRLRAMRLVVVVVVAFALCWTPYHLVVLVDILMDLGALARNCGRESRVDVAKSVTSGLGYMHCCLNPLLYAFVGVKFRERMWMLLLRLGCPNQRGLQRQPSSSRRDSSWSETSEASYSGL
Turning to `CCCCN(Cc1ccc(OCCN2C(=O)CCC2=O)c(OC)c1)C(CC(=O)O)c1ccc(Cl)c(F)c1` (centres unmarked) [Example 43, 3-(Butyl-{4-[2-(2,5-dioxo-pyrrolidin-1-yl)-ethoxy]-3-methoxy-benzyl}-amino)-3-(4-chloro-3-fluoro-phenyl)-propionic acid], the IC50 was found to be 23 nM.

Regarding `Cc1cc(CN(CC2CC2)[C@@H](CC(=O)O)c2ccc(Cl)c(Cl)c2)ccc1OCCN1C(=O)CCC1=O` [Example 26, (S)-3-(Cyclopropylmethyl-{4-[2-(2,5-dioxo-pyrrolidin-1-yl)-ethoxy]-3-methyl-benzyl}-amino)-3-(3,4-dichloro-phenyl)-propionic acid], the half-maximal inhibitory concentration (IC50) came out at 39 nM.

`Cc1cc(CN(CC2CCCCC2)[C@@H](CC(=O)O)c2ccc(Cl)c(F)c2)ccc1OCCN1C(=O)CN(C)C1=O` [Example 34, (S)-3-(4-Chloro-3-fluoro-phenyl)-3-(cyclohexylmethyl-{3-methyl-4-[2-(3-methyl-2,5-dioxo-imidazolidin-1-yl)-ethoxy]-benzyl}-amino)-propionic acid]: the concentration for half-maximal inhibition (IC50) came out at 83 nM.

For `COc1cc(CN(CC2CCCC2)C(CC(=O)O)c2ccc3c(c2)CCO3)ccc1OCCN1C(=O)CCC1=O` (centres unmarked) [Example 146, 3-(Cyclopentylmethyl-{4-[2-(2,5-dioxo-pyrrolidin-1-yl)-ethoxy]-3-methoxy-benzyl}-amino)-3-(2,3-dihydro-benzofuran-5-yl)-propionic acid], the concentration for half-maximal inhibition (IC50) worked out at 56 nM.

Turning to `COc1cc(CN(CC2CC2)C(CC(=O)O)c2ccc(Cl)c(Cl)c2)ccc1OCCn1c(=O)ccn(C)c1=O` (centres unmarked) [Example 124, 3-(Cyclopropylmethyl-{3-methoxy-4-[2-(3-methyl-2,6-dioxo-3,6-dihydro-2H-pyrimidin-1-yl)-ethoxy]-benzyl}-amino)-3-(3,4-dichloro-phenyl)-propionic acid], the 50% inhibitory concentration (IC50) was 30 nM.

For the compound `Cc1cc(CN(CC2CCCCC2)C(CC(=O)O)c2ccc(Cl)c(Cl)c2)ccc1OCCN1C(=O)CCC1=O` (centres unmarked) [Example 83, 3-(Cyclohexylmethyl-{4-[2-(2,5-dioxo-pyrrolidin-1-yl)-ethoxy]-3-methyl-benzyl}-amino)-3-(3,4-dichloro-phenyl)-propionic acid], the IC50 came out at 302 nM.

For `COc1cc(CN(CC2CCCC2)C(CC(=O)O)c2ccc(C(F)(F)F)cc2)ccc1OCCN1C(=O)CCC1=O` (centres unmarked) [Example 180, 3-(Cyclopentylmethyl-{4-[2-(2,5-dioxo-pyrrolidin-1-yl)-ethoxy]-3-methoxy-benzyl}-amino)-3-(4-trifluoromethyl-phenyl)-propionic acid], the half-maximal inhibitory concentration (IC50) was 198 nM.

On to `CCc1cc(CN(CC2CCC2)[C@@H](CC(=O)O)c2ccc(Cl)cc2)ccc1OCCN1C(=O)CCC1=O` [Example 88, (S)-3-(4-Chloro-phenyl)-3-(cyclobutylmethyl-{4-[2-(2,5-dioxo-pyrrolidin-1-yl)-ethoxy]-3-ethyl-benzyl}-amino)-propionic acid], for which the IC50 was determined as 70 nM.

As to `Cc1cc(CN(CC2CC2)[C@H](CC(=O)O)c2ccc(Cl)c(Cl)c2)ccc1OCCN1C(=O)CCC1=O` [Example 27, (R)-3-(Cyclopropylmethyl-{4-[2-(2,5-dioxo-pyrrolidin-1-yl)-ethoxy]-3-methyl-benzyl}-amino)-3-(3,4-dichloro-phenyl)-propionic acid], the 50% inhibitory concentration (IC50) came to 86 nM.

Regarding `Cc1cc(CN(CC2CCCCC2)[C@H](CC(=O)O)c2ccc(Cl)c(F)c2)ccc1OCCN1C(=O)CN(C)C1=O` [Example 35, (R)-3-(4-Chloro-3-fluoro-phenyl)-3-(cyclohexylmethyl-{3-methyl-4-[2-(3-methyl-2,5-dioxo-imidazolidin-1-yl)-ethoxy]-benzyl}-amino)-propionic acid], the IC50 came to 75 nM.

Take `COc1cc(CN(CC2CCCCC2)C2c3ccc(Cl)cc3CC2C(=O)O)ccc1OCCN1C(=O)CCC1=O` (centres unmarked) [Example 169, 5-Chloro-1-(cyclohexylmethyl-{4-[2-(2,5-dioxo-pyrrolidin-1-yl)-ethoxy]-3-methoxy-benzyl}-amino)-indan-2-carboxylic acid]: the half-inhibitory concentration (IC50) was determined as 407 nM.

As to `CCCCN(Cc1ccc(OCCN2C(=O)CCC2=O)c(OC)c1)C(C(=O)O)c1ccc(Cl)cc1` (centres unmarked) [Example 184], the IC50 stood at 336 nM.

On to `Cc1cc(CN(CC2CCCCC2)[C@H](CC(=O)O)c2ccc(Cl)cc2)ccc1OCCN1C(=O)CN(C)C1=O` [Example 31, (R)-3-(4-Chloro-phenyl)-3-(cyclohexylmethyl-{3-methyl-4-[2-(3-methyl-2,5-dioxo-imidazolidin-1-yl)-ethoxy]-benzyl}-amino)-propionic acid], for which the 50% inhibitory concentration (IC50) was determined as 416 nM.

For `Cc1cc(CN(CC2CCCC2)C(CC(=O)O)c2ccc3c(c2)CCO3)ccc1OCCn1c(=O)ccn(C)c1=O` (centres unmarked) [Example 160, 3-(Cyclopentylmethyl-{3-methyl-4-[2-(3-methyl-2,6-dioxo-3,6-dihydro-2H-pyrimidin-1-yl)-ethoxy]-benzyl}-amino)-3-(2,3-dihydro-benzofuran-5-yl)-propionic acid], the IC50 turned out to be 81 nM.

For the compound `COc1cc(CN(CC2CCCC2)C2c3ccc(Cl)cc3CC2C(=O)O)ccc1OCCN1C(=O)CCC1=O` (centres unmarked) [Example 171, 5-Chloro-1-(cyclopentylmethyl-{4-[2-(2,5-dioxo-pyrrolidin-1-yl)-ethoxy]-3-methoxy-benzyl}-amino)-indan-2-carboxylic acid], the IC50 stood at 389 nM.

Regarding `CCCN(Cc1ccc(OCCN2C(=O)CCC2=O)c(CC)c1)C(CC(=O)O)c1ccc(Cl)cc1` (centres unmarked) [Example 85, 3-(4-Chloro-phenyl)-3-({4-[2-(2,5-dioxo-pyrrolidin-1-yl)-ethoxy]-3-ethyl-benzyl}-propyl-amino)-propionic acid], the IC50 was 58 nM.

For the compound `Cc1cc(CN(CC2CCCCC2)C(CC(=O)O)c2ccc(Cl)c(F)c2)ccc1OCCN1C(=O)CCC1=O` (centres unmarked) [Example 78, 3-(4-Chloro-3-fluoro-phenyl)-3-(cyclohexylmethyl-{4-[2-(2,5-dioxo-pyrrolidin-1-yl)-ethoxy]-3-methyl-benzyl}-amino)-propionic acid], the IC50 worked out at 72 nM.

`COc1cc(CN(CC2CC2)[C@@H](C(=O)O)c2ccc(Cl)c(Cl)c2)ccc1OCCN1C(=O)CCC1=O` [Example 111, (R)-(Cyclopropylmethyl-{4-[2-(2,5-dioxo-pyrrolidin-1-yl)-ethoxy]-3-methoxy-benzyl}-amino)-(3,4-dichloro-phenyl)-acetic acid]: the concentration for half-maximal inhibition (IC50) was 420 nM.

`COc1cc(CN(CC2CC2)C(c2ccc(Cl)cc2)C(C)C(=O)O)ccc1OCCN1C(=O)CCC1=O` (centres unmarked) [Example 187, 3-(4-Chloro-phenyl)-3-(cyclopropylmethyl-{4-[2-(2,5-dioxo-pyrrolidin-1-yl)-ethoxy]-3-methoxy-benzyl}-amino)-2-methyl-propionic acid]: the IC50 turned out to be 71 nM.

`Cc1cc(CN(CC2CCCC2)[C@@H](CC(=O)O)c2ccc(Cl)c(Cl)c2)ccc1OCCN1C(=O)CN(C)C1=O` [Example 200, (S)-3-(Cyclopentylmethyl-{3-methyl-4-[2-(3-methyl-2,5-dioxo-imidazolidin-1-yl)-ethoxy]-benzyl}-amino)-3-(3,4-dichloro-phenyl)-propionic acid; hydrochloride]: the IC50 amounted to 234 nM.

As to `O=C(O)C[C@H](c1ccc(Cl)cc1)N(Cc1ccc(OCCN2C(=O)CCC2=O)c(F)c1)CC1CCC1` [Example 55, (R)-3-(4-Chloro-phenyl)-3-(cyclobutylmethyl-{4-[2-(2,5-dioxo-pyrrolidin-1-yl)-ethoxy]-3-fluoro-benzyl}-amino)-propionic acid], the IC50 amounted to 294 nM.

Turning to `CCc1cc(CN(CC2CCCCC2)C(CC(=O)O)c2ccc(Cl)c(F)c2)ccc1OCCN1C(=O)CCC1=O` (centres unmarked) [Example 95, 3-(4-Chloro-3-fluoro-phenyl)-3-(cyclohexylmethyl-{4-[2-(2,5-dioxo-pyrrolidin-1-yl)-ethoxy]-3-ethyl-benzyl}-amino)-propionic acid], the 50% inhibitory concentration (IC50) was 144 nM.

On to `CC(C)CN(Cc1ccc(OCCN2C(=O)CCC2=O)c(F)c1)C(CC(=O)O)c1ccc(Cl)c(Cl)c1` (centres unmarked) [Example 63, 3-(3,4-Dichloro-phenyl)-3-({4-[2-(2,5-dioxo-pyrrolidin-1-yl)-ethoxy]-3-fluoro-benzyl}-isobutyl-amino)-propionic acid], for which the IC50 is 303 nM.

As to `CCCN(Cc1ccc(OCCN2C(=O)CCC2=O)c(F)c1)C(CC(=O)O)c1ccc(Cl)c(F)c1` (centres unmarked) [Example 58, 3-(4-Chloro-3-fluoro-phenyl)-3-({4-[2-(2,5-dioxo-pyrrolidin-1-yl)-ethoxy]-3-fluoro-benzyl}-propyl-amino)-propionic acid], the half-maximal inhibitory concentration (IC50) amounted to 183 nM.

Consider `CCCCN(Cc1ccc(OCCN2C(=O)CCC2=O)c(OC)c1)C1c2ccc(Cl)cc2CC1C(=O)O` (centres unmarked) [Example 168, 1-(Butyl-{4-[2-(2,5-dioxo-pyrrolidin-1-yl)-ethoxy]-3-methoxy-benzyl}-amino)-5-chloro-indan-2-carboxylic acid], for which the IC50 was determined as 237 nM.

For the compound `COc1cc(CN(CC2CCCC2)C(CC(=O)O)c2ccc(Cl)cc2)ccc1OCCN1C(=O)CCC1=O` (centres unmarked) [Example 39, 3-(4-Chloro-phenyl)-3-(cyclopentylmethyl-{4-[2-(2,5-dioxo-pyrrolidin-1-yl)-ethoxy]-3-methoxy-benzyl}-amino)-propionic acid], the half-inhibitory concentration (IC50) is 71 nM.

For the compound `COc1cc(CN(CC2CC2)[C@H](C(=O)O)c2ccc(Cl)c(Cl)c2)ccc1OCCN1C(=O)CCC1=O` [Example 108, (S)-(Cyclopropylmethyl-{4-[2-(2,5-dioxo-pyrrolidin-1-yl)-ethoxy]-3-methoxy-benzyl}-amino)-(3,4-dichloro-phenyl)-acetic acid], the IC50 worked out at 200 nM.

For the compound `CC(C)CN(Cc1ccc(OCCN2C(=O)CCC2=O)c(F)c1)[C@@H](CC(=O)O)c1ccc(Cl)c(F)c1` [Example 21, (S)-3-(4-Chloro-3-fluoro-phenyl)-3-({4-[2-(2,5-dioxo-pyrrolidin-1-yl)-ethoxy]-3-fluoro-benzyl}-isobutyl-amino)-propionic acid; hydrochloride], the 50% inhibitory concentration (IC50) was 66 nM.

For the compound `Cc1cc(CN(CC2CCCCC2)C(CC(=O)O)c2ccc3c(c2)CCO3)ccc1CCCN1C(=O)CCC1=O` (centres unmarked) [Example 143, 3-(Cyclohexylmethyl-{4-[3-(2,5-dioxo-pyrrolidin-1-yl)-propyl]-3-methyl-benzyl}-amino)-3-(2,3-dihydro-benzofuran-5-yl)-propionic acid], the 50% inhibitory concentration (IC50) came to 211 nM.
